# Reference: patent US12006542B2, “Force-modulated hybridization for visualizing nucleic acid length and function” (University of Houston System, priority 2017, dated 2024)
# Tests used:
# [1] = tested on: DNA duplex, enzyme-binding segment for DpnII; test: Force-modulated drug-DNA binding determination with DNA-cleaving enzyme DpnII (visual particle immobilization); conditions: DpnII present; after ~1 pN force
# Source text: (§1) To determine the exact binding site of drugs on nucleic acids, a derived scheme contains a magnetically labeled DNA and its complementary strand, in the presence of the drug to be analyzed and a DNA-cleaving enzyme. The binding site of the drug can be precisely determined by force modulation following surface immobilization.
# (§2) FIG. 1D can be utilized to illustrate a system 100 for measuring drug-DNA binding. A magnetically labeled DNA strand 102 is hybridized with its complementary strand 104, in the presence of a drug molecule 106 and a DNA-cleaving enzyme 107. If the drug binds with the DNA specifically at the location of the enzyme, the enzyme will not be able to cleave the duplex. Consequently, the magnetic particles will be able to be immobilized on the surface via the biotin 105 on complementary strand 104, showing yellowish color in image 108(a) and being assigned as “1”. […] Thus, the magnetic particles will not be able to bind with the surface because of the absence of a functional group (such as biotin 105 shown in FIG. 1D) to interact with the matching functional group on the surface, showing as clear and being assigned as “0” in image 108(b).
# (§3) The derived scheme presented in FIG. 1D was used to precisely determine the binding sites of drug molecules. […]
# [2] = tested on: DNA duplex, enzyme-binding segment for EcoRI; test: Force-modulated drug-DNA binding determination with DNA-cleaving enzyme EcoRI (visual particle immobilization); conditions: EcoRI present; after ~1 pN force
# Source text: as §1, §2, §3
# [3] = tested on: DNA; test: Laser transmission quantification of immobilized particles at different drug concentrations; format: binding; conditions: fitting of transmission profile vs drug concentration
# Source text: The detection was achieved by using a photodetector (DET100A, Thorlabs) coupled with a voltmeter. […] Fitting of the profile yielded a binding constant of 9±2×10^4 M^−1, consistent with the results using a sensitive atomic magnetometer.
# [4] = tested on: DNA duplex, EcoRI binding site; test: Multiplexed sample wells, ultrasound force through a piezo plate, EcoRI; conditions: 100 μM drug, lane 4
# Method: (§4) A shown in FIG. 7A, a new system was designed consisting of a puncher, an incubator, and a displayer. After incubating the sample, the puncher will be used to break the bottom of the incubator so the sample will be transferred to the corresponding wells on the displayer. The bottom of the displayer was functionalized, for example with streptavidin, so that magnetic particles will be able to be immobilized through a labeled DNA duplex, for example with biotin. A mechanical force is then applied on the displayer followed by final inspection and measurement.
# (§5) The samples within each lane were under identical conditions. 1: DNA duplex with 100 μM daunorubicin and DpnII; 2: DNA duplex with 100 μM netropsin and DpnII; 3: DNA duplex; 4: DNA duplex incubated with 100 μM daunomycin and EcoRI; 5: DNA duplex with 100 μM netropsin and ECoRI. After applying ultrasound through a piezo plate, only the particles in lanes 2 and […] were removed, indicating weak binding between netropsin and CTAG (lane 2), and between daunomycin and the EcoRI binding site (lane 4).
# [5] = tested on: segment of the DNA duplex specified by DpnII; test: Dissociation force of drug-DNA binding, segment chosen by DpnII; conditions: for order of binding strength (dissociation force): DNA segment chosen by addition of DpnII, FIG. 5C red section
# Source text: (§6) The dissociation force can be further used to quantitatively distinguish the binding strength of different drug molecules at each and every specific nucleotide sequence. […] This segment is specifically chosen because of the addition of enzyme DpnII.
# [6] = relative to doxorubicin; cited from earlier work
# [7] = tested on: segment of the DNA duplex specified by EcoRI; test: Dissociation force of drug-DNA binding, segment specified by EcoRI; conditions: FIG. 5C blue section
# Source text: as §6
# [8] = tested on: DNA duplex, CTAG (DpnII); test: Multiplexed sample wells, ultrasound force through a piezo plate, DpnII; format: binding; conditions: 100 μM drug, lane 2
# Method: as §4, §5
sequence selectivity of DNA binding ([5]; comparison of DpnII and EcoRI segments),Structure (SMILES),blocking of DpnII binding site on DNA duplex (particle immobilization) [1],blocking of EcoRI on DNA duplex (particle immobilization) [2],binding constant [3],binding with the EcoRI binding site after ultrasound [4],order of binding strength (dissociation force) [5],toxicity in chemotherapy [6],rank of binding strength (dissociation force) [7],binding with CTAG after ultrasound [8]
,COc1cccc2c1C(=O)c1c(O)c3c(c(O)c1C2=O)C[C@@](O)(C(C)=O)C[C@@H]3O[C@H]1C[C@H](N)[C@H](O)[C@H](C)O1 [daunomycin],blocked the binding site of DpnII,could not,9±2×10^4 M^−1,weak binding,"daunomycin, doxorubicin > epirubicin >> daunomycin >> netropsin",,,
,COc1cccc2c1C(=O)c1c(O)c3c(c(O)c1C2=O)C[C@@](O)(C(=O)CO)C[C@@H]3O[C@H]1C[C@H](N)[C@H](O)[C@H](C)O1 [doxorubicin],,,,,"daunomycin, doxorubicin > epirubicin >> daunomycin >> netropsin",,,
more sequence-selective than doxorubicin,COc1cccc2c1C(=O)c1c(O)c3c(c(O)c1C2=O)C[C@@](O)(C(=O)CO)C[C@@H]3O[C@H]1C[C@H](N)[C@@H](O)[C@H](C)O1 [epirubicin],,,,,"daunomycin, doxorubicin > epirubicin >> daunomycin >> netropsin",less toxic,,
,Cn1cc(NC(=O)c2cc(NC(=O)CN=C(N)N)cn2C)cc1C(=O)NCCC(=N)N [netropsin],does not interfere with the binding of DpnII,able to block EcoRI,,,"daunomycin, doxorubicin > epirubicin >> daunomycin >> netropsin",,second strongest,weak binding
